How the values were obtained:
Assay type in all cases: in vivo
[1] = test system: asthma-induced mice; assay: Bronchial hypersensitivity reaction (Rrs value, methacholine), asthma-induced mice; details: oral 200 or 400 μg/kg/day 30 minutes before secondary challenge, 48 hours after, methacholine 5.0 to 50 mg/mL, FIG. 5
Experimental: (§1) Eight-week-old female […] mice (Orient Bio Korea Inc., Korea) having no certain pathogen were accommodated in an aseptic laminar-flow cabinet, and bred by supplying a standard solid feed ad libitum. When the following experiment was performed, the mice were made to correspond to 7- to 8-weeks old, and all laboratory animals were managed according to the protocol approved by the Institutional Animal Care and Use Committee of the Chonbuk National University Medical School.
(§2) Also, on days 21 and 28 from the experimental starting date, the mice were put into a plastic box (Plexiglas (Rohm & Haas, Philadelphia, Pa.) exposure chamber; 24.5 cm×40.5 cm×15.0 cm), and 1.5% ovalbumin was evaporated using an ultrasonic nebulizer (NE-U12; output 0.8 mL/min; Omron, Japan), and injected into the box for 30 minutes so that the mice inhaled the evaporated ovalbumin (secondary challenge).
45 mg/kg of sodium pentobarbital was intraperitoneally injected into the mice prepared in Experimental Method 1 to anesthetize the mice, and the airways were cut and an 18 gauge needle was inserted into the airways. Thereafter, the needle was connected to a small-sized animal respirator connected to a computer, and the computer system was adjusted to a respiration rate of 150 breaths per minute. Then, methacholine in the form of aerosol was fed at an increasing concentration of 5.0 to 50 mg/mL so that the mice inhaled the methacholine. Then, an airway response was measured, and indicated as an Rrs value.
Preparation Example 3 (α,δ-NA-L-G) or α,δ N-acetyl-D-glutamine was orally administered to the asthma-induced mice of Experimental Method 1 at a concentration of 200 or 400 μg/kg/day 30 minutes before a secondary airway challenge, and the bronchial hypersensitivity reaction was measured 48 hours after the secondary challenge using the method described in Experimental Method 5. The results are shown in A and B of FIG. 5.

[2] = test system: asthma-induced mice; assay: Lung tissue staining, degree of inflammation (grades 0 to 3), asthma-induced mice; details: for inflammation score (lung tissue, grades 0 to 3): asthma-induced mice, 48 hours after secondary challenge, OVA group score 3, FIG. 6
Experimental: as §1, §2
A tissue was extracted from each of the mice manufactured in Experimental Method 1, and put into a 10% formalin solution, and reacted for 24 hours to prepare a paraffin block. Thereafter, the paraffin block was microtomed into slices with a size of 3 μm, and each of the slices was attached onto a slide, and heamatoxylin-eosin IHE staining was performed. Then, the slices were observed using a microscope. Here, the degree of inflammation was determined by indicating degrees of inflammation around the airway and blood vessels as grades 0 to 3.
0: There are no inflammatory cells;
1: Inflammatory cells are occasionally observed around the airway and blood vessels;
2: Most of the airway and blood vessels are surrounded by approximately 1 to 5 thin bands of inflammatory cells; and
3: Most of the airway and blood vessels are surrounded by thick bands of inflammatory cells (5 or more).
Preparation Example 3 (α,δ-NA-L-G) was orally administered to the asthma-induced mice of Experimental Method 1 at a concentration of 200 or 400 μg/kg/day 30 minutes before a secondary challenge, and the lung tissue was stained using the method described above in Experimental Method 6 48 hours after the secondary challenge, and the inflammation score was measured. The results are shown in A and B of FIG. 6.

[3] = test system: p-cPLA and p-p38 proteins; assay: Western blot of p-cPLA and p-p38 in lung tissue of asthma-induced mice
Experimental: as §2
A tissue was extracted from each of the mice manufactured in Experimental Method 1, and finely ground to a cell level. Thereafter, the cells were lysed in a cell lysis buffer containing a protease inhibitor to obtain a cell lysate. The cell lysate was centrifuged to obtain protein. Then, an equivalent amount of the proteins obtained from the cells were loaded on an SDS-PAGE gel and electrophoresed. The proteins present in the electrophoresed gel were transferred to a PVDF membrane. […] The PVDF membrane was washed three times with a TBS-T buffer, and visualized and quantified using an ECL Western blotting detection reagent. […]
Small interfering RNA (siRNA; hereinafter referred to as “MKP-1 siRNA”) against RNA encoding an MKP-1 protein, and control siRNA strands were purchased from SANTA CRUZ (USA). […] An effect of the MKP-1 siRNA interference was determined by measuring an expression level of the MKP-1 protein in the lung tissue through Western blot analysis. […]

In the case of CC(=O)NC(=O)CC[C@H](NC(C)=O)C(=O)O [Preparation Example 3, 2,5-diacetamido-5-oxopentanoic acid], the “Rrs value (bronchial hypersensitivity reaction)” value [1] is reported as “remarkably inhibited”, the “inflammation score (lung tissue, grades 0 to 3)” value ([2]; oral 200 μg/kg/day) is reported as 2 and the “inflammation score (lung tissue, grades 0 to 3)” value ([2]; oral 400 μg/kg/day) is reported as 1. For the same compound, the “inflammation-relieving effect (lung tissue)” value ([2]; experiment [5-6], together with siRNA specific to MKP-1, FIG. 15) was “disappeared”, the “degree of inflammation in the lung tissue” value ([2]; experiment [5-6], without MKP-1 siRNA, FIG. 15) was “inhibited” and the “levels of the p-cPLA and p-p38 proteins” value ([3]; lung tissue, oral daily 200, 500 or 1,000 μg/kg/day, 10 and 30 minutes after secondary challenge, FIG. 7) was “decreased depending on the concentration”. For the same compound, the “phosphorylation levels of cPLA2 and p38” value ([3]; with MKP-1 siRNA treatment, same conditions as [5-1], FIG. 8) was “increased”.

Source: US20230026277A1, “COMPOSITION FOR PREVENTION, ALLEVIATION, OR TREATMENT OF RESPIRATORY DISEASE” (MICROX CO., LTD., priority 2019, published 2023)
